# Reference: ChEMBL document CHEMBL1201862, “PubChem BioAssay data set” (2004)
#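 The compound was tested at five concentrations on cells cultured in 96-well plates, with a 48-hour exposure period. The concentration for 50% growth inhibition is given as GI50.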 Active and inactive are the calls of the source. Cut-off read from the data, not from the text of the source: active = GI50 up to about 1.1 µM and inactive = higher.
# Legend:
# Experiment in all cases: growth of human tumour cells (NCI), 48 h
# MDA-MB-231 = system: MDA-MB-231
# TK-10 = system: TK-10
# OVCAR-8 = system: OVCAR-8
# HT-29 = system: HT-29
# A549 = system: A549
# HOP-92 = system: HOP-92
# NCI-H522 = system: NCI-H522
# SF-268 = system: SF-268
# MDA-N = system: MDA-N
# NCI-H226 = system: NCI-H226
# LOX IMVI = system: LOX IMVI
# NCI/ADR-RES = system: NCI/ADR-RES
# HCT-15 = system: HCT-15
# DU-145 = system: DU-145
# SW-620 = system: SW-620
# PC-3 = system: PC-3
# MOLT-4 = system: MOLT-4
# NCI-H460 = system: NCI-H460
# MDA-MB-435 = system: MDA-MB-435
# SK-OV-3 = system: SK-OV-3
# CAKI-1 = system: CAKI-1
# NCI-H23 = system: NCI-H23
# KM12 = system: KM12
# HOP-62 = system: HOP-62
# SF-539 = system: SF-539
# COLO 205 = system: COLO 205
# SK-MEL-28 = system: SK-MEL-28
# OVCAR-4 = system: OVCAR-4
# K562 = system: K562
# SR = system: SR
# UO-31 = system: UO-31
# SNB-75 = system: SNB-75
# IGROV-1 = system: IGROV-1
# Hs-578T = system: Hs-578T
# SK-MEL-2 = system: SK-MEL-2
# OVCAR-5 = system: OVCAR-5
# ACHN = system: ACHN
# SNB-19 = system: SNB-19
# UACC-257 = system: UACC-257
# UACC-62 = system: UACC-62
# U-251 = system: U-251
# M14 = system: M14
# HL-60 = system: HL-60
# SN12C = system: SN12C
# HCT-116 = system: HCT-116
# Malme-3M = system: Malme-3M
# SK-MEL-5 = system: SK-MEL-5
# RPMI-8226 = system: RPMI-8226
# 786-0 = system: 786-0
smiles,measurement,setting,value
O=C(OC1C(Oc2ccccc2COC(=O)C2(O)C=CCCC2=O)OC(CO)C(O)C1O)c1ccccc1 (centres undefined),GI50,MDA-MB-231,35.5 µM (inactive)
same,GI50,TK-10,31.3 µM (inactive)
same,GI50,OVCAR-8,36.7 µM (inactive)
same,GI50,HT-29,60.4 µM (inactive)
same,GI50,A549,7.05 µM (inactive)
same,GI50,HOP-92,0.094 µM (active)
same,GI50,NCI-H522,17.7 µM (inactive)
same,GI50,SF-268,13.2 µM (inactive)
same,GI50,MDA-N,27 µM (inactive)
same,GI50,NCI-H226,23.8 µM (inactive)
same,GI50,LOX IMVI,23.6 µM (inactive)
same,GI50,NCI/ADR-RES,34.8 µM (inactive)
same,GI50,HCT-15,28.2 µM
same,GI50,DU-145,0.953 µM (active)
same,GI50,SW-620,24.7 µM (inactive)
same,GI50,PC-3,28.4 µM (inactive)
same,GI50,MOLT-4,6.03 µM (inactive)
same,GI50,NCI-H460,22.3 µM (inactive)
same,GI50,MDA-MB-435,27.5 µM (inactive)
same,GI50,SK-OV-3,33.9 µM (inactive)
same,GI50,CAKI-1,4.11 µM (inactive)
same,GI50,NCI-H23,26.4 µM (inactive)
same,GI50,KM12,27.4 µM (inactive)
same,GI50,HOP-62,42 µM (inactive)
same,GI50,SF-539,29.6 µM (inactive)
same,GI50,COLO 205,23.3 µM (inactive)
same,GI50,SK-MEL-28,68.4 µM (inactive)
same,GI50,OVCAR-4,41.2 µM (inactive)
same,GI50,K562,34.4 µM (inactive)
same,GI50,SR,19.4 µM (inactive)
same,GI50,UO-31,26.5 µM (inactive)
same,GI50,SNB-75,7.13 µM (inactive)
same,GI50,IGROV-1,25.6 µM (inactive)
same,GI50,Hs-578T,13.5 µM (inactive)
same,GI50,SK-MEL-2,65.8 µM (inactive)
same,GI50,OVCAR-5,91.2 µM (inactive)
same,GI50,ACHN,34.2 µM (inactive)
same,GI50,SNB-19,40.9 µM (inactive)
same,GI50,UACC-257,46.5 µM (inactive)
same,GI50,UACC-62,40.2 µM (inactive)
same,GI50,U-251,20.8 µM (inactive)
same,GI50,M14,35 µM (inactive)
same,GI50,HL-60,23.6 µM (inactive)
same,GI50,SN12C,25.9 µM (inactive)
same,GI50,HCT-116,45.9 µM (inactive)
same,GI50,Malme-3M,18 µM (inactive)
same,GI50,SK-MEL-5,1.28 µM (inactive)
same,GI50,RPMI-8226,13.5 µM (inactive)
same,GI50,786-0,25.3 µM (inactive)
